Assay results from paper PMC9848300, “Discovery of novel enasidenib analogues targeting inhibition of mutant isocitrate dehydrogenase 2 as antileukaemic agents” (Journal of Enzyme Inhibition and Medicinal Chemistry, 2023).
Read-outs that look alike come from different tables or passages of the source.

Key:
SK-MEL-28 = assay: NCI 60 antitumor screening (single dose / five doses); type: cell-based; conditions: Homo sapiens
SW-620 = assay: as above; type: cell-based, human; conditions: Homo sapiens
DU-145 = assay: as above; type: cell-based; conditions: Homo sapiens
SF-295 = assay: as above; type: cell-based; conditions: Homo sapiens
IGROV1 = assay: as above; type: cell-based; conditions: Homo sapiens
RXF 393 = assay: as above; type: cell-based; conditions: Homo sapiens
SF-268 = assay: NCI 60 antitumor screening (single dose); type: cell-based; conditions: Homo sapiens; SF-268 (CNS cancer), single dose 10 μM; read-out: Growth inhibition percentage (GI %)
Summary of the method: (§1)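 Test compound added at 10 μM to each of 60 human cancer lines from nine tumour types; growth measured per NCI protocol in triplicate; percent growth converted to inhibition (100 − G%).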

NCI-H226 = assay: NCI 60 antitumor screening (single dose); type: cell-based; conditions: Homo sapiens; NCI-H226 (non-small cell lung cancer), single dose 10 μM; read-out: Growth inhibition percentage (GI %)
Summary of the method: (§2)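 NCI-60 one-dose screen. Dose: 10 μM. Lines: 60 human tumour lines, nine tissue types. Output: GI% = 100 − G%.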

HCC-2998 = assay: NCI 60 antitumor screening (single dose); type: cell-based; conditions: Homo sapiens; HCC-2998 (colon cancer), single dose 10 μM; read-out: Growth inhibition percentage (GI %)
Summary of the method: as §1

PC-3 = assay: NCI 60 antitumor screening (single dose); type: cell-based; conditions: Homo sapiens
Summary of the method: as §2

HOP-62 = assay: NCI 60 antitumor screening (single dose); type: cell-based; conditions: Homo sapiens; HOP-62 (non-small cell lung cancer), single dose 10 μM; read-out: Growth inhibition percentage (GI %)
Summary of the method: as §1

NCI-H460 = assay: NCI 60 antitumor screening (single dose); type: cell-based; conditions: Homo sapiens; NCI-H460 (non-small cell lung cancer), single dose 10 μM; read-out: Growth inhibition percentage (GI %)
Summary of the method: as §1

OVCAR-8 = assay: NCI 60 antitumor screening (single dose); type: cell-based; conditions: Homo sapiens
Summary of the method: as §2

MCF7 = assay: NCI 60 antitumor screening (single dose); type: cell-based; conditions: Homo sapiens
Summary of the method: as §2

SK-OV-3 = assay: NCI 60 antitumor screening (single dose); type: cell-based; conditions: Homo sapiens
Summary of the method: as §1

SNB-19 = assay: NCI 60 antitumor screening (single dose); type: cell-based; conditions: Homo sapiens; SNB-19 (CNS cancer), single dose 10 μM; read-out: Growth inhibition percentage (GI %)
Summary of the method: as §2

OVCAR-5 = assay: NCI 60 antitumor screening (single dose); type: cell-based; conditions: Homo sapiens
Summary of the method: as §1

KM 12 = assay: NCI 60 antitumor screening (single dose); type: cell-based; conditions: Homo sapiens, KM12; KM 12 (colon cancer), single dose 10 μM; read-out: Growth inhibition percentage (GI %)
Summary of the method: as §2

OVCAR-4 = assay: NCI 60 antitumor screening (single dose); type: cell-based; conditions: Homo sapiens
Summary of the method: as §2

OVCAR-3 = assay: NCI 60 antitumor screening (single dose); type: cell-based; conditions: Homo sapiens
Summary of the method: as §2

NCI-H522 = assay: NCI 60 antitumor screening (single dose); type: cell-based; conditions: Homo sapiens; NCI-H522 (non-small cell lung cancer), single dose 10 μM; read-out: Growth inhibition percentage (GI %)
Summary of the method: as §1

A549/ATCC = assay: NCI 60 antitumor screening (single dose); type: cell-based; conditions: Homo sapiens; A549/ATCC (non-small cell lung cancer), single dose 10 μM; read-out: Growth inhibition percentage (GI %)
Summary of the method: as §2

CAKI-1 = assay: NCI 60 antitumor screening (single dose); type: cell-based; conditions: Homo sapiens
Summary of the method: as §2

NCI-H322M = assay: NCI 60 antitumor screening (single dose); type: cell-based; conditions: Homo sapiens; NCI-H322M (non-small cell lung cancer), single dose 10 μM; read-out: Growth inhibition percentage (GI %)
Summary of the method: as §2

U251 = assay: NCI 60 antitumor screening (single dose); type: cell-based; conditions: Homo sapiens, U-251; U251 (CNS cancer), single dose 10 μM; read-out: Growth inhibition percentage (GI %)
Summary of the method: as §1

NCI-H23 = assay: NCI 60 antitumor screening (single dose); type: cell-based; conditions: Homo sapiens; NCI-H23 (non-small cell lung cancer), single dose 10 μM; read-out: Growth inhibition percentage (GI %)
Summary of the method: as §1

[1] = SK-MEL-28, read-out: Growth inhibition percentage (GI %)
[2] = SW-620, read-out: Growth inhibition percentage (GI %)
[3] = DU-145, read-out: Growth inhibition percentage (GI %)
[4] = SF-295, read-out: Growth inhibition percentage (GI %)
[5] = IGROV-1, read-out: Growth inhibition percentage (GI %)
[6] = RXF 393, read-out: Growth inhibition percentage (GI %)
[7] = PC-3, read-out: Growth inhibition percentage (GI %)
[8] = OVCAR-8, read-out: Growth inhibition percentage (GI %)
[9] = MCF7, read-out: Growth inhibition percentage (GI %)
[10] = SK-OV-3, read-out: Growth inhibition percentage (GI %)
[11] = OVCAR-5, read-out: Growth inhibition percentage (GI %)
[12] = OVCAR-4, read-out: Growth inhibition percentage (GI %)
[13] = OVCAR-3, read-out: Growth inhibition percentage (GI %)
[14] = CAKI-1, read-out: Growth inhibition percentage (GI %)
[15] = SK-MEL-28 (melanoma), single dose 10 μM, read-out: Growth inhibition percentage (GI %)
[16] = SW-620 (colon cancer), single dose 10 μM, read-out: Growth inhibition percentage (GI %)
[17] = DU-145 (prostate cancer), single dose 10 μM, read-out: Growth inhibition percentage (GI %)
[18] = SF-295 (CNS cancer), single dose 10 μM, read-out: Growth inhibition percentage (GI %)
[19] = IGROV-1, IGROV1 (ovarian cancer), single dose 10 μM, read-out: Growth inhibition percentage (GI %)
[20] = RXF 393 (renal cancer), single dose 10 μM, read-out: Growth inhibition percentage (GI %)
[21] = PC-3 (prostate cancer), single dose 10 μM, read-out: Growth inhibition percentage (GI %)
[22] = OVCAR-8 (ovarian cancer), single dose 10 μM, read-out: Growth inhibition percentage (GI %)
[23] = MCF7 (breast cancer), single dose 10 μM, read-out: Growth inhibition percentage (GI %)
[24] = SK-OV-3 (ovarian cancer), single dose 10 μM, read-out: Growth inhibition percentage (GI %)
[25] = OVCAR-5 (ovarian cancer), single dose 10 μM, read-out: Growth inhibition percentage (GI %)
[26] = OVCAR-4 (ovarian cancer), single dose 10 μM, read-out: Growth inhibition percentage (GI %)
[27] = OVCAR-3 (ovarian cancer), single dose 10 μM, read-out: Growth inhibition percentage (GI %)
[28] = CAKI-1 (renal cancer), single dose 10 μM, read-out: Growth inhibition percentage (GI %)

| SMILES | inhibition at 10 µM (SF-268) | inhibition at 10 µM (NCI-H226) | inhibition at 10 µM (HCC-2998) | inhibition at 10 µM (HOP-62) | inhibition at 10 µM (NCI-H460) | inhibition at 10 µM (SNB-19) | inhibition at 10 µM (KM 12) | inhibition at 10 µM (NCI-H522) | inhibition at 10 µM (A549/ATCC) | inhibition at 10 µM (NCI-H322M) | inhibition at 10 µM (U251) | inhibition at 10 µM (NCI-H23) | inhibition at 10 µM (SK-MEL-28; [15]) | inhibition at 10 µM (SW-620; [16]) | inhibition at 10 µM (DU-145; [17]) | inhibition at 10 µM (SF-295; [18]) | inhibition at 10 µM (IGROV1; [19]) | inhibition at 10 µM (RXF 393; [20]) | inhibition at 10 µM (PC-3; [21]) | inhibition at 10 µM (OVCAR-8; [22]) | also measured |
| --- | --- | --- | --- | --- | --- | --- | --- | --- | --- | --- | --- | --- | --- | --- | --- | --- | --- | --- | --- | --- | --- |
| O=[N+]([O-])c1cccc(/C=N/Nc2nc(N/N=C/c3cccc([N+](=O)[O-])c3)nc(N3CCOCC3)n2)c1 [compound 6f, 2-(Morpholin-4-yl)-4,6-bis[(E)-2-[(3-nitrophenyl)methylidene]hydrazin-1-yl]-1,3,5-triazine] | 6.36% | 26.4% | -2.57% | 26.4% | 17% | 4.49% | 15% | 34.8% | 28.6% | 5.64% | 17.2% | 27.6% | – | – | – | – | – | – | – | – | inhibition at 10 µM (SK-MEL-28; [1]): 17.9%; inhibition at 10 µM (SW-620; [2]): 18.4%; inhibition at 10 µM (DU-145; [3]): 31.1%; inhibition at 10 µM (SF-295; [4]): 13.7%; inhibition at 10 µM (IGROV1; [5]): 42.6%; inhibition at 10 µM (RXF 393; [6]): 28.1%; inhibition at 10 µM (PC-3; [7]): 37.9%; inhibition at 10 µM (OVCAR-8; [8]): 39.9%; inhibition at 10 µM (MCF7; [9]): 34.7%; inhibition at 10 µM (SK-OV-3; [10]): -29%; inhibition at 10 µM (OVCAR-5; [11]): -17%; inhibition at 10 µM (OVCAR-4; [12]): 18.4%; inhibition at 10 µM (OVCAR-3; [13]): 19%; inhibition at 10 µM (CAKI-1; [14]): 29.5% |
| CN(C)c1ccc(/C=N/Nc2nc(N/N=C/c3ccc(N(C)C)cc3)nc(N3CCOCC3)n2)cc1 [compound 6g, 4-[(1e)-(2-{4-[(E)-2-{[4-(dimethylamino)phenyl]methylidene}hydrazin-1-yl]-6-(morpholin-4-yl)-1,3,5-triazin-2-yl}hydrazin-1-ylidene)methyl]-N,N-dimethylaniline] | 2.19% | 6.53% | -2.9% | -5.52% | 83.3% | 8.7% | -3.9% | 1.08% | 25.1% | -0.33% | 55.7% | 0.65% | -5.75% | 16.2% | 7.27% | 86.2% | 5.41% | 6.9% | 12.3% | 1.04% | inhibition at 10 µM (MCF7; [23]): 45.1%; inhibition at 10 µM (SK-OV-3; [24]): -9.91%; inhibition at 10 µM (OVCAR-5; [25]): -10.4%; inhibition at 10 µM (OVCAR-4; [26]): -3.79%; inhibition at 10 µM (OVCAR-3; [27]): -9.22%; inhibition at 10 µM (CAKI-1; [28]): 4.03% |
| Clc1cccc(/C=N/Nc2nc(N/N=C/c3cccc(Cl)c3Cl)nc(N3CCOCC3)n2)c1Cl [compound 6h, 2,4-Bis[(E)-2-[(2,3-Dichlorophenyl)methylidene]hydrazin-1-yl]-6-(morpholin-4-yl)-1,3,5-triazine] | 13% | 14.6% | -6.13% | -3.7% | -0.07% | 12.3% | 8.19% | 21.4% | 3.4% | 11.9% | 21% | 25.5% | 2.23% | -6.25% | -2.63% | 18% | 11.2% | 5.06% | 14.5% | 44.6% | inhibition at 10 µM (MCF7; [23]): 25.1%; inhibition at 10 µM (SK-OV-3; [24]): -15.1%; inhibition at 10 µM (OVCAR-5; [25]): -10.2%; inhibition at 10 µM (OVCAR-4; [26]): 3.18%; inhibition at 10 µM (OVCAR-3; [27]): -2.72%; inhibition at 10 µM (CAKI-1; [28]): -1.35% |
| O=[N+]([O-])c1cc(/C=N/Nc2nc(N/N=C/c3ccc(Cl)c([N+](=O)[O-])c3)nc(N3CCOCC3)n2)ccc1Cl [compound 6i, 2,4-Bis[(E)-2-[(4-Chloro-3-nitrophenyl)methylidene]hydrazin-1-yl]-6-(morpholin-4-yl)-1,3,5-triazine] | 0.39% | -3.53% | -5.78% | -5.02% | -1.58% | 0.85% | 6.79% | 0.32% | -8.71% | 2.28% | -5.95% | 3.66% | – | – | – | – | – | – | – | – | inhibition at 10 µM (SK-MEL-28; [1]): -4.35%; inhibition at 10 µM (SW-620; [2]): -6.94%; inhibition at 10 µM (DU-145; [3]): -11.3%; inhibition at 10 µM (SF-295; [4]): -7.07%; inhibition at 10 µM (IGROV1; [5]): 7.34%; inhibition at 10 µM (RXF 393; [6]): -20.7%; inhibition at 10 µM (PC-3; [7]): -0.63%; inhibition at 10 µM (OVCAR-8; [8]): 3.42%; inhibition at 10 µM (MCF7; [9]): 56.7%; inhibition at 10 µM (SK-OV-3; [10]): -22.5%; inhibition at 10 µM (OVCAR-5; [11]): -9.28%; inhibition at 10 µM (OVCAR-4; [12]): -12.5%; inhibition at 10 µM (OVCAR-3; [13]): -10%; inhibition at 10 µM (CAKI-1; [14]): -3.02% |
| Oc1ccc(/C=N/Nc2nc(N/N=C/c3ccc(O)c(O)c3)nc(N3CCOCC3)n2)cc1O [compound 6j, 4-[(1e)-(2-{4-[(E)-2-[(3,4-Dihydroxyphenyl)methylidene]hydrazin-1-yl]-6-(morpholin-4-yl)-1,3,5-triazin-2-yl}hydrazin-1-ylidene)methyl]benzene-1,2-diol] | -2.53% | 1.59% | -6.4% | -5.33% | -7.99% | -4.37% | -1.91% | 3.1% | 1.02% | 9.4% | -3.1% | 0.57% | -2.58% | -3.6% | -5.37% | -3.97% | -6.08% | -20.4% | -5.8% | -0.99% | inhibition at 10 µM (MCF7; [23]): 5.79%; inhibition at 10 µM (SK-OV-3; [24]): -7.04%; inhibition at 10 µM (OVCAR-5; [25]): -3.8%; inhibition at 10 µM (OVCAR-4; [26]): -1.23%; inhibition at 10 µM (OVCAR-3; [27]): -4.79%; inhibition at 10 µM (CAKI-1; [28]): 0.69% |
